According to patent US11780851B2, “LRRK2 inhibitors” (H. Lundbeck A/S, priority 2021, dated 2023):
Like-named read-outs stand apart in the source and are kept apart here.

Key:
LRRK2 WT = target: T1, LRRK2 WT (Homo sapiens, UniProt Q5S007); test: LRRK2 wild-type kinase activity assay (LanthaScreen TR-FRET); assay type: biochemical; details: 1 nM LRRK2 WT, 1.3 mM ATP, 3.5 h at 30° C.; n≥2 tests
T1 construct: comprises residue 970 to 2527 of the full length human wild-type LRRK2 kinase; purchased Invitrogen (Life Technologies Corporation)
T1 sequence (Q5S007 970-2527): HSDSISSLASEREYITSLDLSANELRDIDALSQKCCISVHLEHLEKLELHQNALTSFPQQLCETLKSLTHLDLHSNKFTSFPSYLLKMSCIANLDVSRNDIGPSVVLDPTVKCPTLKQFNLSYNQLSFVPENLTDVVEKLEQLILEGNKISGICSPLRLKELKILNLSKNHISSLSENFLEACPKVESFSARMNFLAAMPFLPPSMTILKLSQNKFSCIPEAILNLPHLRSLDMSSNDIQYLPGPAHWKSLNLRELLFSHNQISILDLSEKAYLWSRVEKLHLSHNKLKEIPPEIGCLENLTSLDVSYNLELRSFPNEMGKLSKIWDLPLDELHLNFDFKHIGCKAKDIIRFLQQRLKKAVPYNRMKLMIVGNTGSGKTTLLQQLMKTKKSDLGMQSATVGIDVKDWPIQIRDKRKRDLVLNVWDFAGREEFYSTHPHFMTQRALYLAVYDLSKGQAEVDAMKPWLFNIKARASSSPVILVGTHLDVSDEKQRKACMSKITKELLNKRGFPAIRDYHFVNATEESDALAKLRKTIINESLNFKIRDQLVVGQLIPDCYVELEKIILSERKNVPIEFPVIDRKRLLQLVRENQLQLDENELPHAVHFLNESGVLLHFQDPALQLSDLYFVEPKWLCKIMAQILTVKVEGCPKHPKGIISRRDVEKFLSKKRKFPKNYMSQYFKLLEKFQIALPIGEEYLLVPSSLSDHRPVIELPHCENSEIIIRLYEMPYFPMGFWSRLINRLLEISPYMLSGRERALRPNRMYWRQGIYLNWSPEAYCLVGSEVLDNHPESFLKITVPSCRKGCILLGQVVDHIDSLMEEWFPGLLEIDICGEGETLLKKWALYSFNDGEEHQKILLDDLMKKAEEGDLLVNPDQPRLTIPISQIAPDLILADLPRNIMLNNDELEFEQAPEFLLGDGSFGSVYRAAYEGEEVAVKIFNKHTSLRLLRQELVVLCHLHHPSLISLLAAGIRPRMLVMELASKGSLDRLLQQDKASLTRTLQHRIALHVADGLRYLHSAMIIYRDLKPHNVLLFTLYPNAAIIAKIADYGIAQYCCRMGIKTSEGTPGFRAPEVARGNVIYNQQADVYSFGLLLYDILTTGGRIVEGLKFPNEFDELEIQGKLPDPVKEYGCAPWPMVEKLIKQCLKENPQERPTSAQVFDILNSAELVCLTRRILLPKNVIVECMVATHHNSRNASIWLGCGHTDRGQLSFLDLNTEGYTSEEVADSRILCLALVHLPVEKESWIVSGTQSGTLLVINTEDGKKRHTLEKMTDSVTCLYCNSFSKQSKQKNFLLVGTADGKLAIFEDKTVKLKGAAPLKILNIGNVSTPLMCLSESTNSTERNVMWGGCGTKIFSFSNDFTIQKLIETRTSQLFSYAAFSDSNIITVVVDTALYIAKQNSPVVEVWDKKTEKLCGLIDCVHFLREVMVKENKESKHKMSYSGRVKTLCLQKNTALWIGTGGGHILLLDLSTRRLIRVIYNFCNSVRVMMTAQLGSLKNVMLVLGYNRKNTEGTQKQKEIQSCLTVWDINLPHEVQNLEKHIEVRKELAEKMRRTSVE
Experimental: (§1) LRRK2 kinase activity was measured using a LanthaScreen kinase activity assay available from Invitrogen (Life Technologies Corporation). The assay is a homogeneous time resolved-fluorescence resonance energy transfer (TR-FRET) assay that measures phosphorylation of a fluorescein-labelled peptide substrate Fluorescein-ERM LRRKtide obtainable from Life Technologies Corporation as a result of LRRK2 kinase activity. The phosphorylated peptide is recognized by a terbium-labelled phospho-specific anti-LRRKtide antibody (pLRRKtide antibody), obtainable from Life Technologies Corporation and, subsequently, the phosphorylated LRRKtide can be quantified by the extent of TR-FRET between the terbium donor and fluorescein acceptor. The LRRK2 kinase was obtained from Invitrogen (Life Technologies Corporation) and comprises residue 970 to 2527 of the full length human wild-type LRRK2 kinase, or a similar sequence with the G2019S mutation. As discussed above, this mutation increases the kinase activity relative to the wild type. The kinase reactions were performed in a 20 μL volume in 384-well plates. […] The mixture was further incubated for 30 minutes at RT. […] The measurement was repeated 30 times for fluorescein and 30 times for terbium emission with a 1000 μs time window between repeats. TR-FRET measurements were performed on a Biotek Synergy plate. The TR-FRET signal was calculated as the emission-ratio at 520 nm over 495 nm. The TR-FRET ratio readout for test compounds was normalized to 0% inhibition corresponding to TR-FRET ratio measured in control wells with no inhibition of the kinase activity and 100% inhibition corresponding to TR-FRET ratio measured in control wells with inhibitor. […] C is the IC50 value and D is the Hill slope coefficient. IC50 estimates were obtained from independent experiment and the logarithmic average was calculated.

[1] = Hepatocyte intrinsic clearance assay; assay type: in vitro ADME, human; details: human, pooled donor, cryopreserved hepatocytes, pH 7.4, 0.1 μM, 2 h at 37° C., 1×10^6 hepatocytes/mL; * measured on 3 separate occasions, ** on a single occasion
Experimental: Test compounds (final concentration 0.1 μM, 0.05% organic) were incubated for 2 h at 37° C., with shaking, in supplemented Leibovitz L-15 media (pH7.4) containing commercially sourced, pooled donor, cryopreserved hepatocytes (final concentration 1×10^6 hepatocytes/m L). The CLint reactions (350 μL) were initiated by addition of test compound. Aliquots (25 μL) were taken at 1, 5, 10, 15, 30, 60, 90 and 120 minutes and then protein crashed with ice-cold acetonitrile containing internal standard (150 μL) then centrifuged (1960 g for 20 minutes at 4° C.). Supernatant was diluted (1:4) with deionized water then analyzed by liquid chromatography (LC)-tandem mass spectrometry (MS/MS). The intrinsic clearances (CLint) were calculated from the slope (k) of the linear regressions of percentages of compound remaining in incubation against incubation time, according to equations 2 and 3.

LRRK2 G2019S = target: T2, LRRK2 G2019S (Homo sapiens, UniProt Q5S007, G2019S); test: LRRK2 G2019S kinase activity assay (LanthaScreen TR-FRET); assay type: biochemical; details: 250 pM LRRK2 G2019S, 1.3 mM ATP, 3 h at 30° C.; n≥2 tests
T2 construct: purchased Invitrogen (Life Technologies Corporation)
T2 sequence (Q5S007 970-2527 G2019S): as the sequence (Q5S007 970-2527) above, with G1050S counted along it
Experimental: as §1

[2] = Rat B/P (brain disposition); assay type: in vivo, male Sprague-Dawley rats; details: male, Sprague-Dawley; for concentration at 1 h / Kp at 1 h / Kp uu at 1 h: time point 1.0 h
Experimental: Brain disposition was evaluated for each compound in male Sprague-Dawley rats (n=3, standard body weight). […] Isolated plasma and brain homogenates were extracted by standard protein precipitation in acetonitrile, containing internal standard, followed by LC-MS/MS analysis using an optimized analytical method. Concentrations of test compound in plasma and brain were quantified against matrix matched calibration standards. The total plasma and brain concentration data are presented in Table 7 alongside the calculated brain Kp (total brain concentration:total plasma concentration ratio).

[3] = Free fraction in plasma (equilibrium dialysis); assay type: in vitro ADME, male Sprague-Dawley rat; details: rat plasma, 1 μM, 5 h at 37° C.
Experimental: The free fractions in male Sprague-Dawley rat or female Gottingen minipig plasma (fuplasma) and rat brain homogenate (fubrain) were determined by equilibrium dialysis using 96-well HTD-dialysis plates with dialysis membranes (molecular weight cut off 12-14 KDa). One side of the HTD-dialysis plate was loaded with matrix (plasma or brain homogenate) and the other side with buffer (100 mM sodium phosphate buffer, pH 7.4). Test compounds were dissolved in DMSO then spiked (5 μL of 0.2 mM) into blank (995 μL) plasma or diluted brain homogenate (1:4 ratio in phosphate buffer) giving a final nominal concentration 1 μM (≤0.5% DMSO). The matrices were loaded into respective chambers and equilibrated against phosphate buffer for 5 h at 37° C. (in a humidified air incubator with 5% CO2 with shaking). Samples from both chambers (buffer and plasma or brain homogenate) were aliquoted to fresh 96-well polypropylene plates then matrix matched using an equal volume of opposite blank matrix before extraction with cold solvent (3 volumes acetonitrile) containing an appropriate bioanalytical internal standard. After centrifugation (20 min, 3200 g, 4° C.) the supernatants were diluted with appropriate volumes of water and compound concentrations were quantified by LC/MS-MS against matrix matched calibration standards. The fuplasma and fubrain were calculated as a percent free according to equation 4 below.
Where [F] is the analyte concentration on the buffer (receiver) side of the membrane; [T] is the analyte concentration on the plasma or brain (donor) side of the membrane; [TO] is the analyte concentration in the plasma or brain sample at time zero; D is matrix dilution factor which is determined as 4 for brain matrix and 1 for plasma matrix in these assays.

[4] = brain, oral gavage 10 mg/kg, mean ± stdev, n = 3, read-out: Total brain concentration
[5] = brain/plasma, oral gavage 10 mg/kg, mean ± stdev, n = 3
[6] = brain/plasma, po, 10 mg/kg, oral gavage 10 mg/kg, fubrain from brain homogenate
[7] = plasma, oral gavage 10 mg/kg, mean ± stdev, n = 3, read-out: Total plasma concentration

SMILES	IC50 (LRRK2 WT)	CLint scaled at 0.1 μM [1]	IC50 (LRRK2 G2019S)	concentration at 1 h [2, 4]	Kp at 1 h [2, 5]	Kp uu at 1 h [2, 6]	concentration at 1 h [2, 7]	fuplasma (% free) [3]	further results
[2H]C([2H])([2H])c1c2c(nn1[C@@H]1CCOC[C@H]1F)OCCCn1nc(Cl)c3cnc(nc31)N2 (single isomer, unassigned) [Example 62, (−)-8-Chloro-2-((3R,4S) or (3S,4R)-3-fluorotetrahydro-2H-pyran-4-yl)-3-(methyl-d3)-2,4,12,13-tetrahydro-11H-5,7-(azenometheno)dipyrazolo[3,4-b:5′,1′-g][1]oxa[4,6,8]triazacycloundecine]	17 nM	< 4 mL/min/kg	5.9 nM	–	–	–	–	–	–
Cc1c2c(nn1C1(C)COC1)OCCCn1nc(Cl)c3cnc(nc31)N2 [Example 14, 8-Chloro-3-methyl-2-(3-methyloxetan-3-yl)-2,4,12,13-tetrahydro-11H-5,7-(azenometheno)dipyrazolo[3,4-b:5′,1′-g][1]oxa[4,6,8]triazacycloundecine]	16 nM	–	4 nM	421 ± 168 ng/g	1.52 ± 0.37	0.3 ± 0.07	280 ± 102 ng/mL	38.0 % free	–
[2H]C([2H])([2H])c1c2c(nn1C1([2H])CCOCC1)OCCCn1nc(Cl)c3cnc(nc31)N2 [Example 15, 8-Chloro-3-(methyl-d3)-2-(tetrahydro-2H-pyran-4-yl-4-d)-2,4,12,13-tetrahydro-11H-5,7-(azenometheno)dipyrazolo[3,4-b:5′,1′-g][1]oxa[4,6,8]triazacycloundecine]	6.8 nM	4 mL/min/kg	2.4 nM	–	–	–	–	–	–
Cc1c2c(nn1C13CC(C#N)(C1)C3)OCCCn1nc(Cl)c3cnc(nc31)N2 [Example 33, 3-(8-Chloro-3-methyl-12,13-dihydro-11H-5,7-(azenometheno)dipyrazolo[3,4-b:5′,1′-g][1]oxa[4,6,8]triazacycloundecin-2(4H)-yl)bicyclo[1.1.1]pentane-1-carbonitrile]	18 nM	–	5.9 nM	–	–	–	–	11.0 % free	concentration at 1 h ([2]; brain, oral gavage 5 mg/kg, mean ± stdev, n = 3, read-out: Total brain concentration): 37 ± 1 ng/g; Kp uu at 1 h ([2]; brain/plasma, oral gavage 5 mg/kg, fubrain from brain homogenate): 0.4 ± 0.07; Kp at 1 h ([2]; brain/plasma, oral gavage 5 mg/kg, mean ± stdev, n = 3): 0.87 ± 0.15; concentration at 1 h ([2]; plasma, oral gavage 5 mg/kg, mean ± stdev, n = 3, read-out: Total plasma concentration): 43 ± 9 ng/mL

Further lines, with some results ahead:

IC50 (LRRK2 WT)	CLint scaled at 0.1 μM [1]	IC50 (LRRK2 G2019S)	concentration at 1 h [2, 4]	Kp at 1 h [2, 5]	Kp uu at 1 h [2, 6]	concentration at 1 h [2, 7]	fuplasma (% free) [3]	SMILES	further results
14 nM	6.33 mL/min/kg	4.3 nM	–	–	–	–	–	Cc1c2c(nn1[C@H]1CCCOCC1)OCCCn1nc(Cl)c3cnc(nc31)N2 (single isomer, unassigned) [Example 29, (−)-(R) or (S)-8-Chloro-3-methyl-2-(oxepan-4-yl)-2,4,12,13-tetrahydro-11H-5,7-(azenometheno)dipyrazolo[3,4-b:5′,1′-g][1]oxa[4,6,8]triazacycloundecine]	–
19 nM	5 mL/min/kg	7 nM	–	–	–	–	–	[2H]C([2H])([2H])c1c2c(nn1[C@H]1CCCOCC1)OCCCn1nc(Cl)c3cnc(nc31)N2 (single isomer, unassigned) [Example 58, (+)-(R) or (S)-8-Chloro-3-(methyl-d3)-2-(oxepan-4-yl)-2,4,12,13-tetrahydro-11H-5,7-(azenometheno)dipyrazolo[3,4-b:5′,1′-g][1]oxa[4,6,8]triazacycloundecine]	–
19 nM	–	6.2 nM	502 ± 92 ng/g	1.62 ± 0.16	0.38 ± 0.04	314 ± 83 ng/mL	30.2 % free	Clc1nn2c3nc(ncc13)Nc1c(nn(C3CCOCC3)c1C1CC1)OCCC2 [Example 10, 8-Chloro-3-cyclopropyl-2-(tetrahydro-2H-pyran-4-yl)-2,4,12,13-tetrahydro-11H-5,7-(azenometheno)dipyrazolo[3,4-b:5′,1′-g][1]oxa[4,6,8]triazacycloundecine]	–
16 nM	–	5.1 nM	110 ± 18 ng/g	2.87 ± 0.04	0.65 ± 0.01	38 ± 6 ng/mL	12.0 % free	Cc1c2c(nn1[C@H]1CC[C@H](F)CC1)OCCCn1nc(Cl)c3cnc(nc31)N2 [Example 25, 8-Chloro-2-((1r,4r)-4-fluorocyclohexyl)-3-methyl-2,4,12,13-tetrahydro-11H-5,7-(azenometheno)dipyrazolo[3,4-b:5′,1′-g][1]oxa[4,6,8]triazacycloundecine]	–
28 nM	–	11 nM	–	–	–	–	30.0 % free	Cc1c2c(nn1[C@H]1[C@@H]3COC[C@@H]31)OCCCn1nc(Cl)c3cnc(nc31)N2 [Example 38, 2-((1R,5S,6r)-3-Oxabicyclo[3.1.0]hexan-6-yl)-8-chloro-3-methyl-2,4,12,13-tetrahydro-11H-5,7-(azenometheno)dipyrazolo[3,4-b:5′,1′-g][1]oxa[4,6,8]triazacycloundecine]	concentration at 0.5 h ([2]; brain, oral gavage 10 mg/kg, time point 0.5 h, mean ± stdev, n = 3, read-out: Total brain concentration): 562 ± 83 ng/g; Kp uu at 0.5 h ([2]; brain/plasma, oral gavage 10 mg/kg, time point 0.5 h, fubrain from brain homogenate): 0.48 ± 0.03; Kp at 0.5 h ([2]; brain/plasma, oral gavage 10 mg/kg, time point 0.5 h, mean ± stdev, n = 3): 1.58 ± 0.1; concentration at 0.5 h ([2]; plasma, oral gavage 10 mg/kg, time point 0.5 h, mean ± stdev, n = 3, read-out: Total plasma concentration): 355 ± 31 ng/mL
16 nM	8.5 mL/min/kg	6.2 nM	–	–	–	–	–	CCc1c2c(nn1[C@H]1CC[C@H](OC)CC1)OCCCn1nc(Cl)c3cnc(nc31)N2 [Example 57, 8-Chloro-3-ethyl-2-((1r,4r)-4-methoxycyclohexyl)-2,4,12,13-tetrahydro-11H-5,7-(azenometheno)dipyrazolo[3,4-b:5′,1′-g][1]oxa[4,6,8]triazacycloundecine]	–
